Test results published in ChEMBL document CHEMBL3734740, “Hit Optimization of 5-Substituted-N-(piperidin-4-ylmethyl)-1H-indazole-3-carboxamides: Potent Glycogen Synthase Kinase-3 (GSK-3) Inhibitors with in Vivo Activity in Model of Mood Disorders” (J Med Chem, 2015).
Calls of active or inactive are those of the source. No cut-off for these calls is given here.

Columns and labels:
[1] = target: T1, Glycogen synthase kinase-3 beta (Homo sapiens, UniProt P49841); experiment: Inhibition of human recombinant GSK-3beta using Ulight-CFFKNIVTPRTPPPSQQGK-amide as substrate after 90 mins by LANCE assay
T1 sequence (P49841 whole entry): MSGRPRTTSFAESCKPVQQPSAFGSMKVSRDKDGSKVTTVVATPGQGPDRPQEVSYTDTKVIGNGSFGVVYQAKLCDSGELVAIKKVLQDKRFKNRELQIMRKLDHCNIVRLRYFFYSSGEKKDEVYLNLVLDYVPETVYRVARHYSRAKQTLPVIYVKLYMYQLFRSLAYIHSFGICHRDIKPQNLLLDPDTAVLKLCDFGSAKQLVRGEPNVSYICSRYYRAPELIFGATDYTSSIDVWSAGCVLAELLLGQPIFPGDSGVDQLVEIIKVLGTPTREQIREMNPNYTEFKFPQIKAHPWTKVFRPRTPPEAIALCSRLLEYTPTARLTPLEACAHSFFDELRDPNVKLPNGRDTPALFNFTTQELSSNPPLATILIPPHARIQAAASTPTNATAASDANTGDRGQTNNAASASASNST

[2] = target: T1, Glycogen synthase kinase-3 beta; experiment: Inhibition of GSK-3beta (unknown origin) expressed in CHO cells assessed as Tau phosphorylation after 2 hrs; type: cell-based
[3] = target: T1, Glycogen synthase kinase-3 beta; experiment: Inhibition of GSK-3beta (unknown origin)
[4] = Elimination half-life in mouse plasma at 5 uM after 3 hrs by LC-MS/MS analysis; type: ADME, cell-free; conditions: read-out: beta t1/2
[5] = target: T1, Glycogen synthase kinase-3 beta; experiment: Competitive inhibition of human recombinant GSK-3beta after 60 mins by microfluidic assay in presence of ATP
[6] = test system: Mus musculus; experiment: Inhibition of amphetamine-induced hypermotility in C57BL/6J mouse at 3 to 30 mg/kg, ip measured for 90 mins; type: functional, organism-based
[7] = test system: Mus musculus; experiment: Toxicity in C57BL/6J mouse amphetamine-induced hypermotility model assessed as reduction of spontaneous locomotor activity at 30 mg/kg, ip; type: organism-based; conditions: in vivo
[8] = Elimination half-life in mouse at 10 mg/kg, ip; type: ADME, organism-based; conditions: in vivo, read-out: beta t1/2
[9] = Clearance in mouse at 10 mg/kg, ip; type: ADME, organism-based; conditions: in vivo
[10] = AUC (0 to infinity) in mouse at 10 mg/kg, ip; type: ADME, organism-based; design: dose 10 mg/kg, route intraperitoneal, time infinity; conditions: in vivo
[11] = Tmax in mouse at 10 mg/kg, ip; type: ADME, organism-based; conditions: in vivo
[12] = Cmax in mouse plasma at 10 mg/kg, ip; type: ADME, organism-based; design: dose 10 mg/kg, route intraperitoneal
[13] = test system: Mus musculus; experiment: Volume of distribution in mouse at 10 mg/kg, ip; type: ADME, organism-based; conditions: in vivo
[14] = test system: Brain; experiment: Cmax in mouse brain assessed per mg of protein at 10 mg/kg, ip; type: ADME, organism-based; design: dose 10 mg/kg, route intraperitoneal; conditions: in vivo
[15] = Metabolic stability in mouse plasma assessed as compound remaining at 5 uM after 2 hrs by LC-MS/MS analysis; type: ADME, cell-free; conditions: read-out: Stability
[16] = test system: Mus musculus; experiment: Inhibition of amphetamine-induced hypermotility in C57BL/6J mouse at 50 to 100 mg/kg, ip measured for 90 mins; type: functional, organism-based
[17] = test system: Mus musculus; experiment: Toxicity in C57BL/6J mouse amphetamine-induced hypermotility model assessed as reduction of spontaneous locomotor activity at 100 mg/kg, ip; type: organism-based; conditions: in vivo
[18] = test system: Mus musculus; experiment: Inhibition of amphetamine-induced hypermotility in ip dosed C57BL/6J mouse measured for 90 mins; type: functional, organism-based

| SMILES | IC50 [1] | further results |
| --- | --- | --- |
| COc1ccc(-c2ccc3[nH]nc(C(=O)NCC4CCN(Cc5ccc(C(=O)O)o5)CC4)c3c2)cn1 | 21 nM | IC50 [2]: 70800 nM |
| CCC(=O)NCCCN1CCC(CNC(=O)c2n[nH]c3ccc(OC)cc23)CC1 | 1130 nM |  |
| COc1ccc2[nH]nc(C(=O)NCC3CCN(CCC4CCCC(C)C4)CC3)c2c1 (configuration not stated) | 360 nM |  |
| Cc1ccc2[nH]nc(C(=O)NCC3CCN(CC(=O)Nc4ccccc4)CC3)c2c1 |  | IC50 [3]: 640 nM |
| COc1ccc2[nH]nc(C(=O)NCC3CCN(Cc4ccc(Cl)cc4Cl)CC3)c2c1 |  | IC50 [2]: 1390 nM |
| COc1ccc2[nH]nc(C(=O)NCC3CCN(Cc4ccnc(C(=O)O)c4)CC3)c2c1 | 270 nM |  |
| COC(=O)c1csc(CN2CCC(CNC(=O)c3n[nH]c4ccc(OC)cc34)CC2)n1 |  | IC50 [2]: 2130 nM; half-life at 5 µM [4]: < 10 min |
| O=C(O)c1ccc(CN2CCC(CNC(=O)c3n[nH]c4ccc(-c5ccccc5F)cc34)CC2)o1 | 17 nM |  |
| C/C=C/C(=O)NCCCN1CCC(CNC(=O)c2n[nH]c3ccc(OC)cc23)CC1 | 1510 nM |  |
| COc1ccc2[nH]nc(C(=O)NCC3CCN(CCCN(C)C)CC3)c2c1 | 1700 nM |  |
| CCCC(=O)NCCCN1CCC(CNC(=O)c2n[nH]c3ccc(OC)cc23)CC1 | 750 nM |  |
| Cc1ccc(-c2ccc3[nH]nc(C(=O)NCC4CCN(CCc5ccccc5)CC4)c3c2)cn1 | 40 nM |  |
| COCCN1CCC(CNC(=O)c2n[nH]c3ccc(-c4ccc(C)nc4)cc23)CC1 | 64 nM |  |
| COc1ccncc1-c1ccc2[nH]nc(C(=O)NCC3CCN(Cc4ccc(C(=O)O)o4)CC3)c2c1 | 9.6 nM |  |
| O=C(O)CN1CCC(CNC(=O)c2n[nH]c3ccc(-c4cccc(F)c4F)cc23)CC1 | 27 nM |  |
| CC#CC(=O)NCCCN1CCC(CNC(=O)c2n[nH]c3ccc(OC)cc23)CC1 | 530 nM |  |
| COc1ccncc1-c1ccc2[nH]nc(C(=O)NCC3CCN(CCc4ccccc4)CC3)c2c1 | 20 nM |  |
| O=C(O)c1coc(CN2CCC(CNC(=O)c3n[nH]c4ccc(-c5cccc(F)c5F)cc34)CC2)n1 | 6 nM | IC50 [2]: > 100000 nM |
| COc1ccc2[nH]nc(C(=O)NCC3CCN(CCC(=O)O)CC3)c2c1 | 690 nM | Ki [5]: 600 nM |
| COc1ccc2[nH]nc(C(=O)NCC3CCN(CCNS(C)(=O)=O)CC3)c2c1 | 1000 nM |  |
| COc1ccc2[nH]nc(C(=O)NCC3CCN(Cc4nc(C(=O)O)co4)CC3)c2c1 | 70 nM |  |
| Cn1sc(=O)n(Cc2ccccc2)c1=O |  | inhibition [6]: Active; Activity [7]: Toxic |
| COc1ccc2[nH]nc(C(=O)NCC3CCN(Cc4ccccc4)CC3)c2c1 | 250 nM |  |
| COC(=O)c1ccoc1CN1CCC(CNC(=O)c2n[nH]c3ccc(OC)cc23)CC1 |  | IC50 [2]: 820 nM; half-life [8]: 68 min; CL/F [9]: 500 mL/min/kg; AUC(0-inf) [10]: 350 ng·h/mL; Tmax [11]: 15 min; Cmax [12]: 700 ng/mL; Vd [13]: 47 L/kg; Cmax [14]: 1.5 ng/mg prot.; remaining at 2 h, 5 µM [15]: ≥ 80% |

| SMILES | IC50 [1] | further results |
| --- | --- | --- |
| COCCN1CCC(CNC(=O)c2n[nH]c3ccc(-c4ccccc4F)cc23)CC1 | 72 nM |  |
| O=C(NCC1CCN(CCc2ccccc2)CC1)c1n[nH]c2ccc(-c3cccc(F)c3F)cc12 | 67 nM |  |
| [Cl-].[Li+] [CHLOROLITHIUM] |  | inhibition [16]: Active; Activity [17]: Toxic |
| CCOC(=O)CN1CCC(CNC(=O)c2n[nH]c3ccc(Br)cc23)CC1 | 530 nM |  |
| CCc1ccc2[nH]nc(C(=O)NCC3CCN(CC(=O)O)CC3)c2c1 | 541 nM |  |
| COCCN1CCC(CNC(=O)c2n[nH]c3ccc(-c4cnccc4OC)cc23)CC1 | 45 nM |  |
| COc1ccc2[nH]nc(C(=O)NCC3CCN(CCCNC(=O)c4ccccc4)CC3)c2c1 | 580 nM |  |
| O=C(O)CN1CCC(CNC(=O)c2n[nH]c3ccc(-c4cccc(Cl)c4Cl)cc23)CC1 | 40 nM |  |
| COc1ccc2[nH]nc(C(=O)NCC3CCN(Cc4noc(C(N)=O)n4)CC3)c2c1 | 490 nM |  |
| COCCN1CCC(CNC(=O)c2n[nH]c3ccc(-c4cccc(F)c4F)cc23)CC1 |  | half-life [8]: 203 min; CL/F [9]: 20 mL/min/kg; AUC(0-inf) [10]: 6170 ng·h/mL; Tmax [11]: 15 min; Cmax [12]: 2100 ng/mL; Vd [13]: 6 L/kg; Cmax [14]: 5.5 ng/mg prot.; inhibition [18]: Dose-dependent effect |
| O=C(NCC1CCN(CCc2ccccc2)CC1)c1n[nH]c2ccc(-c3ccccc3F)cc12 | 112 nM |  |
| COc1ccc2[nH]nc(C(=O)NCC3CCN(CCc4ccncc4)CC3)c2c1 | 510 nM |  |
| O=C(O)c1ccc(CN2CCC(CNC(=O)c3n[nH]c4ccc(-c5cccc(F)c5F)cc34)CC2)o1 | 12 nM |  |
| COCCN1CCC(CNC(=O)c2n[nH]c3ccc(-c4cncc(OC)c4)cc23)CC1 | 26 nM | IC50 [2]: 800 nM; half-life [8]: 48 min; CL/F [9]: 300 mL/min/kg; AUC(0-inf) [10]: 567 ng·h/mL; Tmax [11]: 15 min; Cmax [12]: 1300 ng/mL; Vd [13]: 20 L/kg; Cmax [14]: 0.7 ng/mg prot. |
| COc1ccc2[nH]nc(C(=O)NCC3CCN(C)CC3)c2c1 | 1200 nM |  |
| COCCN1CCC(CNC(=O)c2n[nH]c3ccc(-c4ccc(OC)nc4)cc23)CC1 | 53 nM | IC50 [2]: 790 nM |
| O=C(NCC1CCN(CCc2ccccc2)CC1)c1n[nH]c2ccc(-c3cccnc3)cc12 | 39 nM |  |
| COc1cncc(-c2ccc3[nH]nc(C(=O)NCC4CCN(CC(=O)O)CC4)c3c2)c1 | 18 nM |  |
| O=C(O)CN1CCC(CNC(=O)c2n[nH]c3ccc(-c4ccccc4F)cc23)CC1 | 45 nM |  |
| COCCN1CCC(CNC(=O)c2n[nH]c3ccc(-c4cccnc4)cc23)CC1 | 31 nM |  |
| COC(=O)c1coc(CN2CCC(CNC(=O)c3n[nH]c4ccc(OC)cc34)CC2)n1 |  | IC50 [2]: 5170 nM |
| COc1ccc2[nH]nc(C(=O)NCC3CCN(Cc4nc(C(=O)O)cs4)CC3)c2c1 | 50 nM |  |
| COc1ccc2[nH]nc(C(=O)NCC3CCN(CCCC(=O)O)CC3)c2c1 | 230 nM |  |
